For six compounds, IC50 results are on record in patent publication US20160129011A1, “BICYCLO 2,3-BENZODIAZEPINES AND SPIROCYCLICALLY SUBSTITUTED 2,3-BENZODIAZEPINES” (BAYER PHARMA AKTIENGESELLSCHAFT, priority 2013, published 2016).

One assay has as its system MOLP-8 cells. As to the kind of experiment: Cell proliferation assay (alamarBlue), MOLP-8. The settings on record: Homo sapiens, MOLP-8; multiple myeloma cell line, 120 h incubation. The assay is classed as cell-based. How it is done:
(§1) In accordance with the invention, the ability of the substances to inhibit cell proliferation was determined. Cell viability was determined by means of the alamarBlue® reagent (Invitrogen) in a Victor X3 Multilabel Reader (Perkin Elmer). The excitation wavelength was 530 nm and the emission wavelength […].
The MOLP-8 cells (DSMZ, ACC 569) were sown at a concentration of 4000 cells/well in 100 μl of growth medium (RPMI1640, 20% FCS) on 96-well microtitre plates.
(§2) The MDA-MB-231 cells (DSMZ, ACC 732) were sown at a concentration of 4000 cells/well in 100 μl of growth medium (DMEM/Ham's F12 medium, 10% FCS) on 96-well microtitre plates. After overnight incubation at 37° C., the fluorescence values (CI values) were determined. Then the plates were treated with various substance dilutions (1E-5 M, 3E-6 M, 1E-6 M, 3E-7 M, 1E-7 M, 3E-8 M, 1E-8 M) and incubated at 37° C. for 72 (MV4-11, LOX-IMVI cells), 96 (MOLM-13, B16F10, […] cells), 120 (MOLP-8, KMS-12-PE cells) or 168 (LAPC-4 cells) hours. Subsequently, the fluorescence values were determined (CO values). For the data analysis, the CI values were subtracted from the CO values and the results were compared between cells which had been treated with various dilutions of the substance or only with buffer solution. This was used to calculate the IC50 values (substance concentration required for 50% inhibition of cell proliferation).
(§3) The substances were examined in the cell lines of Table 1 which, in an exemplary manner, represent the stated indications: […]
On the technique in general: Resazurin is reduced to fluorescent resorufin, in cell work by metabolically active cells.

In a further assay the test system is LAPC-4 cells. The experiment in a line: Cell proliferation assay (alamarBlue), LAPC-4. In kind it is cell-based. Particulars: Homo sapiens, LAPC4; prostate cancer cell line, 1 nM methyltrienolone, 168 h incubation. How it is done: as §1
The LAPC-4 cells (ATCC, PTA-1441TM) were sown at a concentration of 4000 cells/well in 100 μl of growth medium (RPMI1640, 2 mM L-glutamine, 10% cFCS) on 96-well microtitre plates. One day later, the LAPC-4 cells were treated with 1 nM methyltrienolone and various substance dilutions.
as §2, with “For the data analysis, the CI values were subtracted from the CO values and the results were compared between cells which had been treated with various dilutions of the substance or only with buffer solution. This was used to calculate the IC50 values (substance concentration required for 50% inhibition of cell proliferation).” left out

The test system of another assay is B16F10 cells. The experiment in a line: Cell proliferation assay (alamarBlue), B16F10. Particulars: Mus musculus, B16-F10; melanoma (BRAF wild-type) cell line, 96 h incubation. The assay is classed as cell-based. How it is done:
as §1
The B16F10 cells (ATCC, CRL-6475) were sown at a concentration of 300-500 cells/well in 100 μl of growth medium (DMEM with phenol red, 10% FCS) on 96-well microtitre plates.
as §2, §3

Another assay has as its system LOX-IMVI cells. The experiment in a line: Cell proliferation assay (alamarBlue), LOX IMVI. The assay is classed as cell-based. Particulars: Homo sapiens, melanoma (BRAF mutated) cell line, 72 h incubation. Here is the method:
as §1
The LOX-IMVI cells (NCI-60) were sown at a concentration of 1000 cells/well in 100 μl of growth medium (RPMI1640, 10% FCS) on 96-well microtitre plates.
as §2, with “proliferation). […]” for “proliferation).”

In another assay the test system is MDA-MB-231 cells. The experiment in a line: Cell proliferation assay (alamarBlue), MDA-MB-231. The assay is classed as cell-based. The settings on record: Homo sapiens, mammary carcinoma cell line, 96 h incubation. Here is the method: as §1, §2, §3
Another assay has as its system KMS-12-PE cells. As to the kind of experiment: Cell proliferation assay (alamarBlue), KMS-12-PE. In kind it is cell-based. Particulars: Homo sapiens, multiple myeloma cell line, 120 h incubation. How it is done: as §1
The KMS-12-PE cells (DSMZ, ACC 606) were sown at a concentration of 4000 cells/well in 100 μl of growth medium (RPMI1640, 20% FCS) on 96-well microtitre plates.
as §2, with “proliferation). […]” for “proliferation).”

A further assay has as its target T1, BRD4 (BD1) (Homo sapiens, UniProt O60885).
T1 construct: longer constructs also being possible, preferably amino acids 44-168; made in house; host or cells: E. coli
The experiment in a line: Binding assay BRD4/acetylated peptide H4 (TR-FRET protein-protein interaction assay). The settings on record: BRD4 (BD1) / acetylated histone H4 peptide. Put shortly:
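His6-tagged BRD4 BD1 (aa 67-152, E. coli-expressed, typically 10 nM) was used with a biotinylated tetra-acetylated H4 peptide, and compounds at 0.1 nM–20 μM in duplicate. After 10 min preincubation, mixtures were incubated 1 h at 22 °C, then ≥3 h at 4 °C. Read-out was the TR-FRET 665/622 nm ratio (Eu-streptavidin to anti-His-XL665); IC50 from a 4-parameter fit.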

Another assay has as its system MV4-11 cells. As to the kind of experiment: Cell proliferation assay (alamarBlue), MV4-11. In kind it is cell-based. The settings on record: Homo sapiens, acute myeloid leukaemia cell line, 72 h incubation. How it is done: as §1
The MV4-11 cells (ATCC, CRL 9591) were sown at a concentration of 5000 cells/well in 100 μl of growth medium (RPMI1640, 10% FCS) on 96-well microtitre plates.
as §2, with “proliferation). […]” for “proliferation).”

The next assay relates to MOLM-13 cells. The experiment in a line: Cell proliferation assay (alamarBlue), MOLM-13. In kind it is cell-based. Particulars: Homo sapiens, MOLM-13; acute myeloid leukaemia cell line, 96 h incubation. The gist of the method:
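MOLM-13 cells in RPMI1640/10% FCS were plated overnight, then exposed to seven compound dilutions (1E-5 to 1E-8 M) for 96 h at 37 °C. Viability was read by alamarBlue fluorescence (ex 530/em 590 nm). Pre-treatment readings were subtracted, and IC50 was calculated against buffer-treated cells.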

pIC50: −log10 of the molar value.

Broadly, the pIC50 is −log10 of the IC50, conventionally taken in molar units. Turning to `CNC(=O)N1N=C(c2ccc(N3CC4(CCS4(=O)=O)C3)cc2)c2cc(OC)c(OC)cc2C[C@@H]1C` [Example 3.1, (4S)-1-[4-(1,1-Dioxido-1-thia-6-azaspiro[3.3]hept-6-yl)phenyl]-7,8-dimethoxy-N,4-dimethyl-4,5-dihydro-3H-2,3-benzodiazepine-3-carboxamide], the negative logarithm of the IC50 (pIC50) in the assay on MOLP-8 cells is 7.40; with LAPC-4 cells, 7.70; in the assay on B16F10 cells, 7.40; in the assay with LOX-IMVI cells, 6.55; in the assay with MDA-MB-231 cells it was 7.10; in the assay on KMS-12-PE cells it was 7.30. Besides, the negative logarithm of the IC50 (pIC50) at BRD4 (BD1) was 7.70; with MV4-11 cells, 7.40; in the assay with MOLM-13 cells it was 7.15.

Consider `CNC(=O)N1N=C(c2ccc(N3C[C@H]4CC[C@@H](C3)O4)cc2)c2cc(OC)c(OC)cc2C[C@@H]1C` [Example 4.2, (4S)-7,8-dimethoxy-N,4-dimethyl-1-[4-(8-oxa-3-azabicyclo[3.2.1]oct-3-yl)phenyl]-4,5-dihydro-3H-2,3-benzodiazepine-3-carboxamide], for which the pIC50 in the assay on MOLP-8 cells is 7.70; in the assay with LAPC-4 cells it was 8.00; in the assay with B16F10 cells, 7.70; with LOX-IMVI cells it was 6.77; in the assay on MDA-MB-231 cells, 7.40; in the assay with KMS-12-PE cells, 7.52. Also, the pIC50 at BRD4 (BD1) is 8.00; in the assay on MV4-11 cells, 7.52; in the assay on MOLM-13 cells it was 7.40.

Turning to `CNC(=O)N1N=C(c2ccc(N3CC4(CN(C(=O)OC(C)(C)C)C4)C3)cc2)c2cc(OC)c(OC)cc2C[C@@H]1C` [Example 8.1, tert-butyl 6-{4-[(4S)-7,8-dimethoxy-4-methyl-3-(methylcarbamoyl)-4,5-dihydro-3H-2,3-benzodiazepine-1-yl)phenyl}-2,6-diazaspiro[3.3]heptane-2-carboxylate], the negative logarithm of the IC50 (pIC50) in the assay on MOLP-8 cells was 7.00; in the assay with B16F10 cells it was 6.89; at BRD4 (BD1), 7.22; in the assay on MOLM-13 cells, 6.74.

Regarding `CNC(=O)N1N=C(c2ccc(N3CC4(CCS4(=O)=O)C3)cc2)c2cc(-n3nc(C)cc3C)ccc2C[C@H]1C` [Example 17.1, (4R)-8-(3,5-Dimethyl-1H-pyrazol-1-yl)-1-[4-(1,1-dioxido-1-thia-6-azaspiro[3.3]hept-6-yl)phenyl]-N,4-dimethyl-4,5-dihydro-3H-2,3-benzodiazepine-3-carboxamide], the pIC50 in the assay on MOLP-8 cells was 5.36; with B16F10 cells, 5.25; at BRD4 (BD1), 5.83; in the assay with MOLM-13 cells it was 5.17.

Regarding `CNC(=O)N1N=C(c2ccc(N3CC4(CCS4(=O)=O)C3)cc2)c2cc(-n3nc(C)cc3C)ccc2C[C@@H]1C` [Example 17.2, (4S)-8-(3,5-Dimethyl-1H-pyrazol-1-yl)-1-[4-(1,1-dioxido-1-thia-6-azaspiro[3.3]hept-6-yl)phenyl]-N,4-dimethyl-4,5-dihydro-3H-2,3-benzodiazepine-3-carboxamide], the pIC50 in the assay with MOLP-8 cells was 7.22; in the assay on B16F10 cells, 7.10; at BRD4 (BD1) it was 8.00; in the assay on MOLM-13 cells it was 7.00.

Take `CNC(=O)N1N=C(c2ccc(N3CC4(CCS4(=O)=O)C3)cc2)c2cc(OC(F)(F)F)ccc2C[C@@H]1C` [Example 18.2, (4S)-1-[4-(1,1-dioxido-1-thia-6-azaspiro[3.3]hept-6-yl)phenyl]-N,4-dimethyl-8-(trifluoromethoxy)-4,5-dihydro-3H-2,3-benzodiazepine-3-carboxamide]: the pIC50 with MOLP-8 cells was 7.52; in the assay on B16F10 cells, 7.52; on BRD4 (BD1), 8.00; in the assay with MOLM-13 cells it was 7.52.
